Literature values, collected in patent US8202858B2, “Vasopressin V1a antagonists” (priority 2004, dated 2012).

Target: T1, V1a vasopressin receptor (Homo sapiens, UniProt P37288)
T1 construct: host or cells: patients (clinical study)
Conditions: patients with dysmenorrhoea, compared to placebo

T1 sequence (P37288 whole entry): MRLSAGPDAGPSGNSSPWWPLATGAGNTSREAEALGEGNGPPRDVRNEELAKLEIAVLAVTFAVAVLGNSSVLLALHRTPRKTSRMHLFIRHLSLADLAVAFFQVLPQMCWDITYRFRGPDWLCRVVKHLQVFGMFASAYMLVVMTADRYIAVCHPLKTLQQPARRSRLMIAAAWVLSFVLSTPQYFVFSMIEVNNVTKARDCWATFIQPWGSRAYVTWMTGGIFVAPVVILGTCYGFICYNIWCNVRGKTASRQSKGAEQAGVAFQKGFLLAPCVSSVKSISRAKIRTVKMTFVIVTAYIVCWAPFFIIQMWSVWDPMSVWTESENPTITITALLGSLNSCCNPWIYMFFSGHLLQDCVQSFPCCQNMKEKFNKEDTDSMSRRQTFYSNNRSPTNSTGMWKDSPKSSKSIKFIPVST

Q: For `COc1ccc(S(=O)(=O)N2c3ccc(Cl)cc3[C@](O)(c3ccccc3Cl)[C@@H]2C(=O)N2CCC[C@H]2C(N)=O)cc1OC` [SR49059], which “amount of additional pain-killer taken” value is on record?
A: dose-related decrease in the amount of additional pain-killer taken

Q: And the pain?
A: dose-related decrease in pain
